How the values were obtained:
[1] = test system: patient suffering from alcohol dependence; test: Treatment of alcohol abuse in a patient with alcohol dependence; assay type: in vivo; conditions: person; 5 mg per day via nasal spray; within one month; patient report
Description: The patient is a person suffering from alcohol dependence and complaining of symptoms including abdominal pain, confusion, nausea and vomiting, neglecting to eat, and shaking in the morning. The patient is prescribed granisetron 5 mg per day taken via nasal spray.

[2] = test system: patient with panic disorder; test: Treatment of panic disorder in a patient with a 5-HT3 receptor antagonist; assay type: in vivo; conditions: patient previously treated largely unsuccessfully with SSRIs, MAOIs, tricyclic antidepressants, benzodiazepines; 8 mg/day to 30 mg/day for 5 to 60 days
Description: A patient presents with symptoms including rapid heartbeat, perspiration, dizziness, dyspnea, trembling, uncontrollable fear, and hyperventilation, indicative of panic disorder. The patient has previously been treated, largely unsuccessfully, with selective serotonin reuptake inhibitors (SSRIs), monoamine oxidase inhibitors (MAOIs), tricyclic antidepressants, and benzodiazepines. The patient is treated for 5 to 60 days sequentially with ondansetron administered at a dose of 8 mg/day to 30 mg/day.

Structure (SMILES) | control over drinking [1] | improvement of symptoms (abdominal pain, confusion, nausea and vomiting, neglecting to eat, shaking in the morning) [1] | amelioration of panic disorder (severity and frequency of panic attacks and their symptoms) [2]
CN1C2CCCC1CC(NC(=O)c1nn(C)c3ccccc13)C2 (stereo not drawn) [granisetron] | able to exert control over their drinking | all of the above symptoms have improved considerably | –
Cc1nccn1CC1CCc2c(c3ccccc3n2C)C1=O (stereo not drawn) [ondansetron, 1,2,3,9-tetrahydro-9-methyl-3-[(2-methyl-1H-imidazol-1-yl]methyl]-4H-carbazol-4-one] | – | – | long-lasting amelioration of panic disorder

Reference: patent publication US20110288115A1, “TREATMENT OF VAGALLY-MEDIATED SPECTRUM DISORDERS” (AVMEDIS LLC, priority 2010, published 2011)
